Laboratory results from US20240041825A1, “SAROGLITAZAR AND MYRISTIC ACID FOR USE IN THE TREATMENT OF FOCAL SEGMENTAL GLOMERULOSCLEROSIS (FSGS)” (Delta 4 GmbH, priority 2020, published 2024).

System: Adriamycin-induced FSGS in BALB/c mice
Experiment: Adriamycin induced nephropathy mouse model of FSGS (UPCR, UACR, histology)
Type: in vivo
Conditions: Experiment 1, FIG. 5; chow with 25 mg/kg saroglitazar and/or 625 mg/kg myristic acid from day 2
Excerpt: For biological testing of the shortlisted compounds, we chose accepted mouse models of FSGS such as the adriamycin induced nephropathy or miR-193a-overexpressing mice which suffer from FSGS due to suppression of Wilms' tumor 1 (WT1) gene (Gebeshuber et al., 2013). All animal experiments and handling were in accordance with the Austrian law for protection of animals and approved by the animal ethics committee of the Austrian ministry for science and research.
Adriamycin-dependent nephropathy (active compound: doxorubicin) was induced by tail vein injection accepted doses of approx. 9 mg/kg mouse in 10 weeks old BALB/c mice. Control mice were injected with 0.9% saline. At least 6 mice were analyzed per group. Mice were monitored daily for signs of pain, altered movement, or reduced food uptake and sacrificed by cervical dislocation. […]
Urinary albumin levels were assessed by ELISA, urinary total protein and urinary creatinine levels were measured on the Roche Cobas system, using routine laboratory kits. Urinary protein/creatinine (UPCR) ratio and urinary albumin/creatinine ratio (UACR) were assessed at different time points. Weight and physical fitness scores were monitored on a daily basis. […]
Spot urine was collected every week and Creatinine and protein levels were measured.
Urinary albumin was measured by ELISA. […]

Compound	effect on proteinuria (UPCR) versus control, in words
CCO[C@@H](Cc1ccc(OCCn2c(C)ccc2-c2ccc(SC)cc2)cc1)C(=O)O [saroglitazar]	able to ameliorate proteinuria to a certain extent
CCCCCCCCCCCCCC(=O)O [Myristic acid]	did not reduce UPCR
